Assay results reported in a melting point compilation (Tetko et al.).

melting point [°C]	Compound
177	COC(=O)c1c(O)cc(O)cc1O
< 20	Brc1ccc(Oc2ccc(Br)c(Br)c2)c(Br)c1
126 to 127	CCc1c(C)nc(NC(=O)NS(=O)(=O)c2cccs2)nc1Cl
172	O=[N+]([O-])c1cc(C(O)Cc2ccc3ccccc3n2)ccc1C(O)Cc1ccc2ccccc2n1 (centres undefined)
162	NC(CS(=O)(=O)c1ccccc1)=NO
218	Cn1[nH]c(N)c2c(=O)ccnc1-2
57	Cc1ccc(S(=O)(=O)O)c(C)c1
140 to 142	CCSC(SCC)C(O)C(O)C(O)C(O)CO (centres undefined)
198 to 200	C/C=C/C=C(C)/C=N/Nc1ccc([N+](=O)[O-])cc1[N+](=O)[O-]
248	O=C(O)Cn1c(C(F)(F)F)nc2ccccc21
72	CCOc1cc(C(=S)N2CCCCC2)ccc1OCc1ccccc1
181	Nc1cc(Cl)c(Cl)cc1[N+](=O)[O-]
65 to 67	O=C1C=C(/C=C/c2ccccc2)CCC1
174	Cc1c(F)c(F)c(C(=O)O)c(F)c1F
169	O=C(O)c1cccc(Br)c1F
140 to 142	FC(F)(F)c1cccc(CSc2nnc(S)s2)c1
219 to 226	O=C(c1ccc2c(c1)C(=O)OC2=O)c1ccc2c(c1)C(=O)OC2=O
310 to 312	CC(C)(C)c1cc2c(O)c(c1)Cc1cc(C(C)(C)C)cc(c1O)Cc1cc(C(C)(C)C)cc(c1O)Cc1cc(C(C)(C)C)cc(c1O)Cc1cc(C(C)(C)C)cc(c1O)C2
213 to 217	CC1OC(Oc2c[nH]c3ccc(Br)c(Cl)c23)C(O)C(O)C1O (centres undefined)
19	C#CCCCCCCC(=O)O
250 to 251	O=C1C(=C2C(=Cc3coc4ccccc4c3=O)C(=O)c3ccccc32)C(=O)c2ccccc21
77	Clc1ccc(C(c2ccccc2Cl)C(Cl)Cl)cc1 (centres undefined)
225	C/C(=N/Nc1ccccc1)C1=Cc2ccccc2C1
187 to 188	CC(=O)OCC(OC(C)=O)C(OC(C)=O)C(OC(C)=O)C(OC(C)=O)C(N)=O (centres undefined)

melting point [°C]	Compound
268	Nc1nc(N)nc(-c2cc(Cl)ccc2Cl)n1
148 to 150	CCOC(=O)c1cc(=O)c2cc(I)ccc2o1
240 to 243	COc1ccc(C(=O)Nc2ccc(-c3ccc4nn(-c5ccccc5)nc4c3)cc2)cc1
23	CCOC(=O)c1ccncc1
79 to 81	O=S(=O)(Cl)c1cc2ccccc2o1
166	O=c1ccn(C2CC(O)C(CO)O2)c(=O)[nH]1 (centres undefined)
31.5	COc1ccccc1OC(C)=O
107 to 109	CC(CCC(=O)O)C1CCC2C3CCC4CC(=O)CCC4(C)C3CC(O)C12C (centres undefined)
239 to 241	O=[N+]([O-])c1ccc(-c2nnc(NC3=NCCN3)s2)cc1
70	COC(=O)c1cccc2[nH]ccc12
342	O=C(O)c1ccc(C(=O)O)o1
113	O=C1C[C@@H](C(=O)O)c2ccccc21
192	Cc1ccnc(SCC(=O)O)n1
161 to 163	CC(=O)OCC1OC(n2cc(I)c(=O)[nH]c2=O)CC1OC(C)=O (centres undefined)
95	COC(=O)C1(S(=O)(=O)c2ccc(Br)cc2)CCC1
188	S=c1oc2ccccc2n1CSCCCS
73 to 75	Nc1ccc2oc3c(c2c1)CCCC3
242	CCOC(=O)C1Cc2cc3c(cc2NC1=O)NC(=O)C(C(=O)OCC)C3 (centres undefined)
80 to 85	CCNC(=S)NN
158 to 159	O=C1OC(c2ccccc2)=NC1=Cc1ccco1
196	O=C(O)C1CC1C(=O)Nc1ccc(Cl)cc1Cl (centres undefined)
64 to 66	CC(=C(C)c1ccccc1)c1ccccc1
-79	CC=CC=CC
85 to 88	Cc1oc(-c2ccccc2)cc1C(=O)Cl

melting point [°C]	Compound
129 to 131	CSc1nccc(-c2ccc(S(=O)(=O)Cl)s2)n1
139 to 142	CNc1ccc(C#N)cc1N
103	Cc1c(C(C)C)c(=O)n(-c2ccccc2)n1C
114	CC1(C)OCC(C(O)C(O)C2COC(C)(C)O2)O1 (centres undefined)
37 to 39	O=C(Cl)c1ccccc1Oc1ccccc1
76	Cc1ncc([N+](=O)[O-])n1CC(C)O (centres undefined)
82	O=C1CCC(NC(=O)OCc2ccccc2)CC1
216	C#CC1(OC(C)=O)CCC2C3CCC4=CC(=NO)CCC4C3CCC21CC (centres undefined)
75	O=C(Nc1cccc(Cl)c1)OCC#CCCl
256	N[C@H](C(=O)O)C1CCCCC1
115 to 117	O=[N+]([O-])c1cc(Cl)ccc1S(=O)(=O)c1ccccc1
248	O=C1c2ccccc2C(=O)c2c(NCCO)ccc(NCCO)c21
63 to 64	Cc1cc(Br)cc(N)c1N
184	CC12CCC(=O)C=C1CCC1C2C(=O)CC2(C)C(C(=O)CO)CCC12 (centres undefined)
25 to 27	CNC(=Nc1ncccc1C)SC
80 to 83	CC(=O)c1cccc(Cl)c1O
133 to 134	Cn1cc(C=O)c(N)n1
167	CCc1oc2ccccc2c1C(=O)c1cc(I)c(O)c(I)c1
37.5	CCC(N)(CO)CO
180 to 183	O=C(O)C1C2CCC(C2)C1C(=O)c1ccccc1 (centres undefined)
175	CCOC(=O)c1nn(-c2cc(-c3ccc(OC)cc3)n[nH]2)c(=N)c(-c2nc3ccccc3s2)c1C
34	O=[N+]([O-])c1ccc(OC(F)F)cc1
102 to 104	CCNC(=S)Nc1ccccc1
42 to 46	CC(O)CCc1ccc(CCC(C)O)cc1 (centres undefined)

melting point [°C]	Compound
96	CC12CCC(C(COC(=O)c3ccccc3)C1=O)C2(C)C (centres undefined)
169	O=Cc1ccc(C(=O)O)s1
215 to 216	CNc1c(C=O)c(=O)oc2ccccc12
153 to 157	NNC(=O)COc1ccc(Cl)cc1Cl
133 to 135	Nc1n[nH]cc1Br
119	CCCOC(=O)C1=C(C)NC(C)=C(C(=O)OCCC)C1c1ccccc1
236	CC(=O)c1ccc2[nH]c(=O)oc2c1
246	N#C/C(=N\Nc1ccc(Cl)cc1Cl)c1nc(-c2ccc(Cl)cc2)cs1
45 to 50	Sc1c(Cl)cccc1Cl
45.5 to 47	OCCCC#CC#CCCCO
196	O=C(O)c1ccc(C2CCCCC2)cc1
163	CC(=O)Nc1ccc(C#N)c(C)c1
92	Ic1cc2ccccc2c2ccccc12
156	O=C(O)CSCC(=O)NC1CCSC1=O (centres undefined)
146 to 149	CCC(C)C(NC(=O)OCC1c2ccccc2-c2ccccc21)C(=O)O (centres undefined)
171 to 173	Cc1cc(C(N)=O)no1
77 to 79	COCc1nnc(S)s1
145 to 147	Cc1cc(C(=O)O)c(-c2ccccc2)o1
126 to 127	COC(=O)c1cnc(SCC(=O)c2ccc(Cl)cc2)n1C
-56	CC(O)COC(C)(C)C (centres undefined)
41.7	BrCCCCCCCBr
103 to 105	CC1(C)CCC(=O)CC1=O
90	CC1(C)OC(=O)CC1CC(=O)O (centres undefined)
112 to 113	CSC(S)=Nc1ccc(Cl)cc1

melting point [°C]	Compound
189	NS(=O)(=O)c1cc(Cl)c(Cl)cc1Cl
66	C#Cc1ccc(Br)cc1
45 to 47	O=C(OCc1ccccc1)c1cnc(Cl)nc1C(F)(F)F
136 to 141	Cc1ccnc(N)c1[N+](=O)[O-]
113	CP(=O)(c1ccccc1)c1ccccc1
160	Nc1ccc2[nH]nnc2c1
236	O=C(NN=CC=Cc1ccc([N+](=O)[O-])o1)c1ccc([N+](=O)[O-])s1
136	NC(=S)c1ccccn1
287 to 289	O=C1c2ccccc2C(=O)c2c1ccc(O)c2O
133 to 134	CCOC(=O)c1cn2c(n1)sc1ccccc12
180	O=C(OCC1OC(Oc2ccccc2CO)C(O)C(O)C1O)c1ccccc1 (centres undefined)
147 to 149	Cc1csc2sc(C=O)c(C)c12
163	NC(=S)c1ccno1
106 to 107	O=Cc1ccccc1N1CCN(c2ccc(C(F)(F)F)cn2)CC1
-73.5	CCCCCOC=O
83 to 85	Cn1nc(-c2ccco2)cc1CO
109	COc1c(C)c(C)c(OC)c2c1CC2=O
46 to 50	Clc1cc2ccccc2c2ccccc12
300	N#Cc1cc2[nH]c(=O)c(=O)[nH]c2cc1[N+](=O)[O-]
66 to 67	OCc1ccc2nonc2c1
46 to 48	Ic1ccccc1CN1CCOCC1
-120	CCC(C)CC(C)(C)C (centres undefined)
295	CCn1c(=O)c(C=C2C(=O)NN=C2c2c(O)c3ccccc3n(C)c2=O)c(O)c2ccccc21

Compound	melting point [°C]
CC(=O)OC1CCC2(C)C(=CC(=O)C3C4CCC(=O)C4(C)CCC32)C1 (centres undefined)	182
CCOC(=O)c1cn2nc(OP(=S)(OCC)OCC)cc2nc1C	51
Cc1c(C(=O)O)nnn1Cc1ccccc1	170 to 171
Cc1cccc2cc3ccccc3cc12	85.5
CCCOC1CCC2C3CC=C4CC5(CCC4(C)C3CCC12C)OCCO5 (centres undefined)	213 to 214
CCCSP(=O)(OCC)SCCC	70
CC(=O)Cc1c[nH]c2ccccc12	116
Cc1ccc(Br)cc1Br	-9.7
Cc1cc(C(=O)O)c(C)n1C1CC1	178 to 185
COC(=O)[C@]12c3ccccc3[C@]34c5ccccc5[C@H]1[C@@]32C(=O)O[C@@H]4C	203
